# “And” between values parts separate entries of the source, which are not always exact repeats. Equal values may be shown once. Where a name gives a salt, the structure may show the parent alone.
# Columns and labels:
# [1] = molecular target: T1, hERG ion channel (Homo sapiens, UniProt Q12809); test: Population Patch Clamp (PPC) hERG assay in CHO K1 cells; format: cell-based; conditions: for IC50: CHO K1 cells stably transfected with hERG
# T1 construct: expressed in transfected cells; host or cells: CHO K1
# Protocol: Inhibition of the hERG channel was measured by automated patch clamp assay in CHO K1 cells, stably transfected with the hERG ion channel. PPC measurements were performed using an IonWorks Quattro instrument (Molecular Devices Corporation, Union City, CA) using a 384 well PatchPlate (Molecular Devices Corporation) with 64 apertures per well. Each concentration of test compound was tested in duplicate wells. Amphotericin B was used to obtain electrical access to the cell interior at a final concentration of 200 μg/mL. Human ether-à-gogo related gene (hERG) currents were measured with a prepulse to +40 mV (2 s) from the holding potential of −80 mV, followed by a step to −50 mV (2 s) to elicit the deactivating tail currents, before returning to the holding potential for 1s. Compounds were incubated for 600s between the pre- and post-compound reads. The external recording solution used was 130 mM Na Gluconate, 20 mM NaCl, 4 mM KCl, 1 mM MgCl2, 1.8 mM CaCl2, 10 mM Hepes, 5 mM Glucose, pH to 7.3 with NaOH. All data were filtered for seal quality, seal drop, and current amplitude. The maximum current amplitude of the 3rd pulse tail current was calculated before (Pre) and after (Post) compound addition and the amount of block assessed by dividing the Post-compound current amplitude by the Pre-compound current amplitude.
# [2] = molecular target: T2, XIAP-Caspase-9 in HEK293-XIAP-Caspase-9 cells (Homo sapiens, UniProt P98170); test: HEK293-XIAP-Caspase-9 immunoprecipitation (IP) MSD assay; format: cell-based; conditions: compound 2 h at 37° C.; read-out: HEK293-X-C9 IP
# T2 construct: FLAG; expressed in transfected cells
# Protocol: Stable HEK293-XIAP-Caspase-9 cells were plated out into 96-well plates [200 μl/well at 1×10^6 cells/mL in cultured complete medium (DMEM+10% FBS+0.5 mg/mL Geneticin (Invitrogen)] and left overnight at 37° C. to recover. Compounds were added to duplicate wells in 0.1% DMSO for 2 h at 37° C. Cells were lysed in 50 μl 1×MSD lysis buffer (1% Triton X-100 in 20 mM Tris·Cl (pH 7.6), 150 mM NaCl including protease inhibitors) for 20 min rocking at room temperature. Streptavidin high bind MSD plate (L15SB-2) were coated with biotinylated anti-FLAG M2 antibody (Sigma F9291) at 25 μl/well with a 5 μg/mL dilution of antibody in PBS for 1 h, shaking; followed by blocking for 1 h with 150 μl 3% BSA/TBST. Cell lysate (25 μl) was added to the 96-well anti-FLAG coated MSD plate and placed on shaker for 4 h at room temperature. […] Plates were washed 4 times with 150 μl TBST, and 150 μl/well 1×MSD read buffer (R92TC-2) added before reading each plate.
# EC50 values were determined from dose-response plots using nonlinear least-squares analysis.
# T1 sequence (Q12809 whole entry): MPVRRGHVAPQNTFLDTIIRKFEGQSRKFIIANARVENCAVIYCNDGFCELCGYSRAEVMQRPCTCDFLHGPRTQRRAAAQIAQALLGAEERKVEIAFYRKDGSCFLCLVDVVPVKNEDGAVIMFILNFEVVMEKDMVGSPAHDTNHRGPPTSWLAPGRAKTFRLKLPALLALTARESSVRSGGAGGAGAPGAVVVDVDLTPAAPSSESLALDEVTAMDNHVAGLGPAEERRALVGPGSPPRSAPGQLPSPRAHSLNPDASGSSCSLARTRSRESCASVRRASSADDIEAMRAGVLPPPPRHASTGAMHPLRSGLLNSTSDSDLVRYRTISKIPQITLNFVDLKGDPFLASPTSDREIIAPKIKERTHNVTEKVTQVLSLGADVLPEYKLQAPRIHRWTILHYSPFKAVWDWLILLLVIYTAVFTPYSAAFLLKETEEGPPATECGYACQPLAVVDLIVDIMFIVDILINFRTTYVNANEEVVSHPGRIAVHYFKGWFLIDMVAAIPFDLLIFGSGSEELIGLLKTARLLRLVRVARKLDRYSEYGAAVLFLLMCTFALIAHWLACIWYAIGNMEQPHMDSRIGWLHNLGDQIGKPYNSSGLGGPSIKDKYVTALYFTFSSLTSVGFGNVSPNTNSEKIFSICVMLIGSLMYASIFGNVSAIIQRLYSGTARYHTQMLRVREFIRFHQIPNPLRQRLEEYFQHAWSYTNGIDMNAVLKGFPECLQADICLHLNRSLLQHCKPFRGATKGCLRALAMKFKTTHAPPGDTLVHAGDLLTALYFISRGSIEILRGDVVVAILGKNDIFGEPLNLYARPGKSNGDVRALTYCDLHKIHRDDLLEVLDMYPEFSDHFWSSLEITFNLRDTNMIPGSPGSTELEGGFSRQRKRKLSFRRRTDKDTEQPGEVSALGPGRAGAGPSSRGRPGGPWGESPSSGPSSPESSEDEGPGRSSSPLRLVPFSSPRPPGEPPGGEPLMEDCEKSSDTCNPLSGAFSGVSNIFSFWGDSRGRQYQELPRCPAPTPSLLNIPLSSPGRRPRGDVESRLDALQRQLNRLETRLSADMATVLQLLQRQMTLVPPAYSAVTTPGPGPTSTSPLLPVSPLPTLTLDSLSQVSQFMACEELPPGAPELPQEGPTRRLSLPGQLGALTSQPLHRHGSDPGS
# T2 sequence (P98170 whole entry): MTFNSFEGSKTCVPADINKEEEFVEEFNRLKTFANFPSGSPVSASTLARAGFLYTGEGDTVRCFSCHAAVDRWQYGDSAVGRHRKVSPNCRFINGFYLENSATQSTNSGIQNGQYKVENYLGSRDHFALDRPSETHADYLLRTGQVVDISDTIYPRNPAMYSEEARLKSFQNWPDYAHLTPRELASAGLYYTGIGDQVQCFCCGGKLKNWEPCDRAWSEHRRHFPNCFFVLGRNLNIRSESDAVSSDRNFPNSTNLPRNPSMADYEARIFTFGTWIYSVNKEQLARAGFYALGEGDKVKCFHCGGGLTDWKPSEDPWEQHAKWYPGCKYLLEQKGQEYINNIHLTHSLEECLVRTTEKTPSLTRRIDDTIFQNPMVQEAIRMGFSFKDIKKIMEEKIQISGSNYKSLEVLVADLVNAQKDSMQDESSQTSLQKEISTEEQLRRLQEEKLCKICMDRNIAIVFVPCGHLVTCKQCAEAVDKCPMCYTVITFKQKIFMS
SMILES,EC50 [2],further results
"CCCCc1cc2c([nH]c1=O)C(C)(C)CN2C(=O)CN1C[C@@H](C)NC[C@@H]1CN1[C@H](C)COC[C@H]1C [Example 32, 6-Butyl-1-{2-[(2R,5R)-2-{[(3R,5R)-3,5-dimethylmorpholin-4-yl]methyl}-5-methylpiperazin-1-yl]acetyl}-3,3-dimethyl-1H,2H,3H,4H,5H-pyrrolo[3,2-b]pyridin-5-one dihydrochloride]",1.5 nM,hERG PPC (PI) ([1]; @ 500 μM): 55% @ 500
"C[C@@H]1CN(CC(=O)N2CC(C)(C)c3[nH]c(=O)c(Cc4ccc(F)cc4F)cc32)[C@@H](CN2CCOC[C@H]2C)CN1 [Example 8, 6-[(2,4-Difluorophenyl)methyl]-3,3-dimethyl-1-{2-[(2R,5R)-5-methyl-2-{[(3R)-3-methylmorpholin-4-yl]methyl}piperazin-1-yl]acetyl}-1H,2H,3H,4H,5H-pyrrolo[3,2-b]pyridin-5-one dihydrochloride]",5.4 nM,hERG PPC (PI) ([1]; @ 300 μM): 39% @ 300
"C[C@@H]1CN(CC(=O)N2CC(C)(C)c3c2cc(Cc2ccc(F)cc2F)c(=O)n3N)[C@@H](CN2CCOC[C@H]2C)CN1.Cl.Cl [Example 23, 4-Amino-6-[(2,4-difluorophenyl)methyl]-3,3-dimethyl-1-{2-[(2R,5R)-5-methyl-2-{[(3R)-3-methylmorpholin-4-yl]methyl}piperazin-1-yl]acetyl}-1H,2H,3H,4H,5H-pyrrolo[3,2-b] pyridin-5-one dihydrochloride]",0.77 nM,hERG PPC (PI) ([1]; @ 100 μM): 63% @ 100
"CCCCc1cc2c(n(N)c1=O)C(C)(C)CN2C(=O)CN1C[C@@H](C)NC[C@@H]1CN1[C@H](C)COC[C@H]1C [Example 30, 4-Amino-6-butyl-1-{2-[(2R,5R)-2-{[(3R,5R)-3,5-dimethylmorpholin-4-yl]methyl}-5-methylpiperazin-1-yl]acetyl}-3,3-dimethyl-1H,2H,3H,4H,5H-pyrrolo[3,2-b]pyridin-5-one dihydrochloride]",1.2 nM and 1.4 nM,IC50 [1]: 230000 nM
"C[C@@H]1CN(CC(=O)N2CC(C)(C)c3cc(=O)n(Cc4ccc(F)cc4F)cc32)[C@@H](CN2C[C@H](C)OC[C@H]2C)CN1.Cl.Cl [Example 22, 6-[(2,4-Difluorophenyl)methyl]-1-{2-[(2R,5R)-2-{[(2S,5R)-2,5-dimethylmorpholin-4-yl]methyl}-5-methylpiperazin-1-yl]acetyl}-3,3-dimethyl-1H,2H,3H,5H,6H-pyrrolo[2,3-c]pyridin-5-one dihydrochloride]",3.9 nM,hERG PPC (PI) ([1]; @ 100 μM): 47% @ 100
"C[C@@H]1CN(CC(=O)N2CC(C)(C)c3nc(C(O)CO)c(Cc4ccc(F)cc4)cc32)[C@@H](CN2CCOC[C@H]2C)CN1 (single isomer, unassigned) [Example 13, 1-[5-((R or S)-1,2-Dihydroxyethyl)-6-[(4-fluorophenyl)methyl]-3,3-dimethyl-1H,2H,3H-pyrrolo [3,2-b]pyridin-1-yl]-2-[(2R,5R)-5-methyl-2-{[(3R)-3-methylmorpholin-4-yl]methyl}piperazin-1-yl] ethan-1-one dihydrochloride]",4.4 nM,"hERG PPC (PI) ([1]; @ 300 μM, dihydrochloride): 46% @ 300"
"C[C@@H]1CN(CC(=O)N2CC(C)(C)c3nc(CO)c(Cc4ccc(F)cc4F)cc32)[C@@H](CN2CCOC[C@H]2C)CN1 [Example 11, 1-{6-[(2,4-Difluorophenyl)methyl]-5-(hydroxymethyl)-3,3-dimethyl-1H,2H,3H-pyrrolo[3,2-b]pyridin-1-yl}-2-[(2R,5R)-5-methyl-2-{[(3R)-3-methylmorpholin-4-yl]methyl}piperazin-1-yl] ethan-1-one dihydrochloride]",1.1 nM,IC50 [1]: 51000 nM
"COC(CO)c1nc2c(cc1Cc1ccc(F)cc1)N(C(=O)CN1C[C@@H](C)NC[C@@H]1CN1CCOC[C@H]1C)CC2(C)C (single isomer, unassigned) [Example 27, 1-{6-[(4-Fluorophenyl)methyl]-5-((R or S)-2-hydroxy-1-methoxyethyl)-3,3-dimethyl-1H,2H,3H-pyrrolo[3,2-b]pyridin-1-yl}-2-[(2R,5R)-5-methyl-2-{[(3R)-3-methylmorpholin-4-yl]methyl}piperazin-1-yl] ethan-1-one trihydrochloride]",6 nM and 9.9 nM,hERG PPC (PI) ([1]; @ 1000 μM): 55% @ 1000

# Reference: patent publication US12202828B2, “Bicyclic heterocycle compounds and their uses in therapy” (ASTEX THERAPEUTICS LIMITED, priority 2013, dated 2025)
